The IC50 is the concentration needed to halve the response being measured. A high value points to lower potency.

This note sets out measurements from BindingDB's records for doi:10.7270/Q23F4N3R (Burnham Center For Chemical Genomics, 2011).

One experiment can be described thus: HK1 enzyme inhibitors – biochemical, selectivity assay for HKDC1 inhibitor project, dose response (AID 504763).
Conditions: not given
`O=C(O)[C@@H](c1ccccc1)N1Cc2ccccc2C1=O` yielded an IC50 of more than 80 µM.
For the compound `CCOC(=O)c1ccc(NC2=CC(=O)C(=O)c3ccccc32)cc1`, the IC50 is more than 80 µM.
Consider `CCc1ccc(S(=O)(=O)N=C2C=C(Sc3nnc[nH]3)C(=O)c3ccccc32)cc1`, for which the IC50 amounted to 2.85 µM.
For the compound `COC(=O)c1ccccc1NC1=CC(=NS(=O)(=O)c2ccc(C(=O)O)cc2)c2ccccc2C1=O`, the IC50 worked out at 5.77 µM.
`O=C(O)c1ccc(S(=O)(=O)N=C2C=C(Nc3ccccc3F)C(=O)c3ccccc32)cc1`: the IC50 came to 6.02 µM.
Consider `CCc1ccc(S(=O)(=O)N=C2C=C(Nc3ccc(C(=O)O)cc3)C(=O)c3ccccc32)cc1`, for which the IC50 came to 6.89 µM.
Same read-out and setting: next, `CC(=O)N(C1=C(Cl)C(=O)c2ccccc2C1=O)C1CCCCC1`: 10.2 µM; `C=CCN1C=C2C(=O)C(C)(OC(=O)CCC(=O)OC)C(=O)C(Br)=C2C=C1c1ccc(OC)cc1` (stereo not given): more than 80 µM; `Cc1cccc(-n2c3nc(=O)[nH]c(=O)c-3cc3cc([N+](=O)[O-])ccc32)c1`: more than 80 µM.
On the same count and under the same terms, next, `Cc1ccc(/N=C/C2=CC(Cc3ccccc3Cl)C=C([N+](=O)[O-])C2=O)c(O)c1` (stereo not given): more than 80 µM.
The compound `Oc1ccc(CN=Nc2ncc(Br)cn2)c(O)c1` displayed an IC50 of more than 80 µM.
With `O=c1c2ccccc2nc(/C=C/c2cccnc2)n1CCc1ccccc1`, the half-inhibitory concentration (IC50) is more than 80 µM.
`Cc1[nH]c2ccccc2c1C1=CC(=O)C=CC1=O` returned an IC50 of 9.71 µM.
In turn, `CCOC(=O)c1ccc(NC(=O)CSc2n[nH]c(-c3ccncc3)n2)cc1` yielded an IC50 of 10.5 µM.
For `COc1ccc(Cn2c(O)c3[nH]cccc-3c2=O)cc1`, the IC50 was more than 80 µM.
Still for that read-out and setting: next, `O=C(CSc1nnc(CCCN2C(=O)c3cccc4cccc(c34)C2=O)n1-c1ccccc1)N1CCCCC1`: 9.74 µM; `Cc1ccc(N2C(=O)NC(=O)C(=Cc3cc(C)n(-c4sc5c(c4C#N)CCCC5)c3C)C2=O)cc1`: more than 80 µM; `Cc1ccc2cc(CCNC(=O)c3ccc(S(=O)(=O)N4CCCCC4)cc3)c(O)nc2c1`: 6.04 µM.
Take `Cc1nc2c(c(=O)c3ccccc3n2C)c(=O)n1-c1ccccc1`: the IC50 was determined as 15.3 µM.
`O=S(=O)(O)c1ccc(O)c2cc(Nc3ccccc3)ccc12` registered an IC50 of more than 80 µM.
Regarding `NC1=C(Br)C(=O)c2ncccc2C1=O`, the IC50 was 13.8 µM.
As for `CCCC(=O)NC1=C(Cl)C(=O)c2ccccc2C1=O`, the IC50 turned out to be 3.06 µM.
`CC(Nc1cc(O)c2cccnc2c1O)C(=O)c1ccccc1` (stereo not given) yielded an IC50 of 75.1 µM.
The compound `CN1c2ccc(C=O)c3c(C=O)ccc(c23)N(C)C1(C)C` [1,2,2,3-tetramethyl-2,3-dihydro-1H-perimidine-6,7-dicarbaldehyde] gave an IC50 of 18.8 µM.
Turning to `Cc1ccc(C)c(-n2nnnc2Sc2nnnn2-c2ccccc2)c1` [1-(2,5-dimethylphenyl)-5-(1-phenyltetrazol-5-yl)sulfanyltetrazole], the IC50 was more than 80 µM.
Compound `O=C1C(Cl)=C(N2CCC(C(=O)O)CC2)C(=O)c2ccccc21` [1-(3-chloro-1,4-dioxo-2-naphthalenyl)-4-piperidinecarboxylic acid] returned a concentration for half-maximal inhibition (IC50) of 13.5 µM.
For the compound `COC(=O)C1CN(C#N)N(c2ccc(Cl)cc2)C12c1ccccc1-c1ccccc12` (stereo not given) [2'-(4-chlorophenyl)-1'-cyano-4'-spiro[fluorene-9,3'-pyrazolidine]carboxylic acid methyl ester], the IC50 was more than 80 µM.
As for `O=c1c2ccccc2nc2n1CCC2` [2,3-dihydropyrrolo[2,1-b]quinazolin-9(1H)-one], the IC50 was more than 80 µM.
Compound `COC1=C(OC)C(=O)C(Sc2ccc3ccccc3c2)=CC1=O` [2,3-dimethoxy-5-naphthalen-2-ylsulfanylcyclohexa-2,5-diene-1,4-dione] showed a 50% inhibitory concentration (IC50) of 7.15 µM.
For `CN(C)Cc1cc(O)c(CN(C)C)cc1O` [2,5-bis[(dimethylamino)methyl]benzene-1,4-diol], the IC50 is more than 80 µM.
For the compound `CC(C)(C=O)C1=CC(=O)c2ccccc2C1=O` [2-(1,4-dioxo-2-naphthalenyl)-2-methylpropanal], the IC50 was more than 80 µM.
Same read-out and setting: next, `O=C1C(N2CCOCC2)=C(n2nnc3ccccc32)C(=O)c2ccccc21` [2-(1-benzotriazolyl)-3-(4-morpholinyl)naphthalene-1,4-dione]: 7.58 µM; `COc1ccc(NC(=O)Cc2c[nH]c3ccccc23)cc1S(=O)(=O)N1CCCCC1` [2-(1H-indol-3-yl)-N-(4-methoxy-3-piperidin-1-ylsulfonylphenyl)acetamide]: more than 80 µM; `O=C(NCCc1ccccc1)C(c1cccs1)N(C(=O)CCl)c1ccc(Cl)cc1` (stereo not given) [2-(4-chloro-N-(2-chloro-1-oxoethyl)anilino)-N-(2-phenylethyl)-2-thiophen-2-ylacetamide]: more than 80 µM.
As for `Cc1nc([N+](=O)[O-])c(Br)n1CC(=O)c1ccc2ccccc2c1` [2-(5-bromanyl-2-methyl-4-nitro-imidazol-1-yl)-1-naphthalen-2-yl-ethanone], the IC50 was more than 80 µM.
Consider `Cc1ccc(SC2=C(N(C)C)C(=O)c3ccccc3C2=O)cc1` [2-(dimethylamino)-3-[(4-methylphenyl)thio]naphthalene-1,4-dione], for which the IC50 was 19.7 µM.
As to `Cc1cc(C)c(S(=O)(=O)Nc2cc(SCC(=O)O)c(O)c3ccccc23)cc1C` [2-[1-hydroxy-4-[(2,4,5-trimethylphenyl)sulfonylamino]naphthalen-2-yl]sulfanylacetic acid], the IC50 was 14.2 µM.
`O=C(CSc1nnc(CCCN2C(=O)c3cccc4cccc(c34)C2=O)n1-c1ccccc1)N1CCN(CCO)CC1` [2-[3-[5-[[2-[4-(2-hydroxyethyl)-1-piperazinyl]-2-oxoethyl]thio]-4-phenyl-1,2,4-triazol-3-yl]propyl]benzo[de]isoquinoline-1,3-dione] gave an IC50 of 7.31 µM.
`Cc1cccc(N2C(=O)NC(=O)C(=Cc3cc(C)n(-c4sc5c(c4C#N)CCCC5)c3C)C2=O)c1C` [2-[3-[(E)-[1-(2,3-dimethylphenyl)-2,4,6-trioxo-1,3-diazinan-5-ylidene]methyl]-2,5-dimethylpyrrol-1-yl]-4,5,6,7-tetrahydro-1-benzothiophene-3-carbonitrile]: the IC50 was more than 80 µM.
`Cc1ccc(C)c(S(=O)(=O)Nc2cc(SCC(=O)O)c(O)c3ccccc23)c1` [2-[4-[(2,5-dimethylphenyl)sulfonylamino]-1-hydroxynaphthalen-2-yl]sulfanylacetic acid] had an IC50 of 16.4 µM.
`O=C(O)CSc1cc(NS(=O)(=O)c2ccc(Cl)cc2)c2ccccc2c1O` [2-[4-[(4-chlorophenyl)sulfonylamino]-1-hydroxynaphthalen-2-yl]sulfanylacetic acid] showed a concentration for half-maximal inhibition (IC50) of 16.7 µM.
Compound `O=C(O)COc1ccc(C=NNC(=O)c2ccc(-c3csc(Nc4ccc(Cl)cc4)n3)cc2)cc1` [2-[4-[[[4-[2-(4-chloroanilino)-1,3-thiazol-4-yl]benzoyl]hydrazinylidene]methyl]phenoxy]acetic acid] gave an IC50 of more than 80 µM.
`Cc1cc(C)n2cc(CSc3nnc(-c4ccccc4)c(-c4ccccc4)n3)nc2n1` [2-[(5,6-diphenyl-1,2,4-triazin-3-yl)sulfanylmethyl]-5,7-dimethyl-imidazo[1,2-a]pyrimidine] yielded an IC50 of 11.4 µM.
With `O=C(CSc1nnc(-c2cccnc2)[nH]1)Nc1ccnc2ccccc12` [2-[(5-pyridin-3-yl-1H-1,2,4-triazol-3-yl)sulfanyl]-N-quinolin-4-yl-ethanamide], inhibition was half-maximal at 11 µM (IC50).
Compound `[H]/N=C(\N/C(=N/[H])NCCCCCCNC(=N)NC(=N)Nc1ccc(Cl)cc1)Nc1ccc(Cl)cc1` [2-[amino-[6-[[amino-[(E)-[amino-(4-chloroanilino)methylidene]amino]methylidene]amino]hexylimino]methyl]-1-(4-chlorophenyl)guanidine] came in with a half-maximal inhibitory concentration (IC50) of more than 80 µM.
Consider `COc1cc(NC(=O)c2cnc(N)s2)cc(C(=O)Nc2cccc(C(F)(F)F)c2)c1` [2-amino-N-[3-methoxy-5-[[3-(trifluoromethyl)phenyl]carbamoyl]phenyl]-1,3-thiazole-5-carboxamide], for which the IC50 was more than 80 µM.
On the same count and under the same terms, for `O=C(C1=C(c2ccccc2)C(=O)c2ccccc2C1=O)c1ccccc1` [2-benzoyl-3-phenylnaphthoquinone] the value was 7.24 µM; for `CCOc1ccc(-n2c(C)cc(C(=O)CCl)c2C)cc1` [2-chloranyl-1-[1-(4-ethoxyphenyl)-2,5-dimethyl-pyrrol-3-yl]ethanone], more than 80 µM; for `COc1ccc(-n2c(C)cc(C(=O)CCl)c2C)cc1` [2-chloranyl-1-[1-(4-methoxyphenyl)-2,5-dimethyl-pyrrol-3-yl]ethanone], more than 80 µM.
Same read-out and setting: next, `CC(=O)n1cc(N(C(=O)CCl)c2ccc([N+](=O)[O-])cc2)c2ccccc21` [2-chloranyl-N-(1-ethanoylindol-3-yl)-N-(4-nitrophenyl)ethanamide]: more than 80 µM; `O=C1C(Cl)=C(Oc2ccccc2)C(=O)c2ccccc21` [2-chloro-3-phenoxynaphthalene-1,4-dione]: 10 µM; `O=C(O)c1cc(N2N=C(C(F)(F)F)/C(=C/C=C/c3ccco3)C2=O)ccc1Cl` [2-chloro-5-[4-[3-(2-furyl)-2-propenylidene]-5-oxo-3-(trifluoromethyl)-4,5-dihydro-1H-pyrazol-1-yl]benzoic acid]: more than 80 µM.
In turn, `CCn1cc(C(=O)NCc2ccc3c(c2)OCO3)c2cc(OC)c(OC)cc2c1=O` [2-ethyl-1-keto-6,7-dimethoxy-N-piperonyl-isoquinoline-4-carboxamide] returned a concentration for half-maximal inhibition (IC50) of 18.9 µM.

Staying with this experiment, now noted: inactive by the depositor's call.
Regarding `NC1=CC(=O)C(=O)c2ccccc21`, the 50% inhibitory concentration (IC50) amounted to 57.8 µM.
As to `COC(=O)c1ccc(NC(=O)CSc2n[nH]c(-c3ccncc3)n2)cc1`, half-maximal inhibition (IC50) required 22.5 µM.
As for `Cc1cc(C)n2nc(SCc3nnc(SCc4ccccc4Cl)s3)nc2n1`, the IC50 came to 23.2 µM.
Regarding `Cc1ccc(-n2c3nc(=O)[nH]c(=O)c-3cc3cc([N+](=O)[O-])ccc32)cc1C`, the IC50 came out at 36.6 µM.
`CCN(CC)Cc1cc(O)c(CN(CC)CC)cc1O` [2,5-bis(diethylaminomethyl)benzene-1,4-diol] showed an IC50 of 55.3 µM.
Consider `Cc1ccc(C(=O)c2c(C)oc3c2C(=O)C(=O)c2ccccc2-3)cc1` [2-Methyl-3-(4-methyl-benzoyl)-naphtho[1,2-b]furan-4,5-dione], for which half-maximal inhibition (IC50) was put at 21.5 µM.
`O=C(O)CSc1cc(NS(=O)(=O)c2cccc([N+](=O)[O-])c2)c2ccccc2c1O` [2-[1-hydroxy-4-[(3-nitrophenyl)sulfonylamino]naphthalen-2-yl]sulfanylacetic acid]: the concentration for half-maximal inhibition (IC50) was found to be 29.4 µM.
